{
  "source": "patent US20230087609A1",
  "about": "“USE OF A SOLUBLE GUANYLATE CYCLASE (sGC) STIMULATOR OR OF A COMBINATION OF A sGC STIMULATOR AND AN sGC ACTIVATOR FOR CONDITIONS WHEREIN THE HEME GROUP OF sGC IS OXIDIZED OR WHEREIN sGC IS DEFICIENT IN HEME” (Universiteit Maastricht, priority 2020, published 2023)",
  "target": "T1, purified human sGC treated with ODQ (oxidized heme) (Homo sapiens, UniProt Q02153)",
  "T1 construct": "purchased EnzoLifeScience, Lörrach, Germany",
  "T1 sequence (Q02153 1-619)": "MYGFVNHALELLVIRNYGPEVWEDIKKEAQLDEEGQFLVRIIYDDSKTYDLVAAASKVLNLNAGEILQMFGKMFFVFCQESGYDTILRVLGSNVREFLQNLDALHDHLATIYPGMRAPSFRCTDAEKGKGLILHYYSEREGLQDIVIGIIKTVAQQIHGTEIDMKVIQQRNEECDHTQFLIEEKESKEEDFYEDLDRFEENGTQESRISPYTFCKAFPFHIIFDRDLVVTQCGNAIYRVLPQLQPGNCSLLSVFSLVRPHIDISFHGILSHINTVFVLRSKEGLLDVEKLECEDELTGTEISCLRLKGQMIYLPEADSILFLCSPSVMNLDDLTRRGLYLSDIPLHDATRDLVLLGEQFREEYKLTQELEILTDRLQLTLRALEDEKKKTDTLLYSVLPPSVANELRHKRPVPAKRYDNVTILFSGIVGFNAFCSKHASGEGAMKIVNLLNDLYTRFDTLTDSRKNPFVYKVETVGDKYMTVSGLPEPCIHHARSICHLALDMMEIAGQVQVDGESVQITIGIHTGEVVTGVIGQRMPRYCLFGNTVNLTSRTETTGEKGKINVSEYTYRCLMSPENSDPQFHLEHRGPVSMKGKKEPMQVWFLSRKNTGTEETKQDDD",
  "T1 sequence (Q02108 1-690 partner)": "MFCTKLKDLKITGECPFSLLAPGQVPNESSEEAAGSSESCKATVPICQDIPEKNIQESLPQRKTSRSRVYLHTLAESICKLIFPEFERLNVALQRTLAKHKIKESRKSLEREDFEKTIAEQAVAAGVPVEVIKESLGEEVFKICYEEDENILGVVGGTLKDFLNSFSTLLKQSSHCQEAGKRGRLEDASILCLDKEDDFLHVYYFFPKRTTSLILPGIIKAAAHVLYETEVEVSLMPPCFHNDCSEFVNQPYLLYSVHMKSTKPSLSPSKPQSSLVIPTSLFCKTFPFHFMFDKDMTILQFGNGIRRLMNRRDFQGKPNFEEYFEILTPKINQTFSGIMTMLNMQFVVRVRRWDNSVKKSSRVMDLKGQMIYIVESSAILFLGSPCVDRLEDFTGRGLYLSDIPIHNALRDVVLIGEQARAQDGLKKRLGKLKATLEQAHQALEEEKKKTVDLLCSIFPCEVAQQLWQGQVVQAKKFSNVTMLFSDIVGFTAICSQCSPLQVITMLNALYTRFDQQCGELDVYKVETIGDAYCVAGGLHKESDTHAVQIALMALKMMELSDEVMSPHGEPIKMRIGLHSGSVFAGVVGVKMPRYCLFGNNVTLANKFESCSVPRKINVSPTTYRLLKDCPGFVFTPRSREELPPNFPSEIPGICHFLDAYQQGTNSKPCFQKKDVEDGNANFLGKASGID",
  "test": "sGC activity of purified human sGC treated with ODQ",
  "assay_type": "biochemical",
  "settings": "10 μM ODQ, 0.3 μM BAY 58-2667 ± 10 μM BAY 41-2272 (FIG. 7A); ODQ concentration series with 30 μM Bay 41-2272 (FIG. 7B)",
  "data": [
    {"compound": "Nc1nc(-c2nn(Cc3ccccc3F)c3ncccc23)ncc1C1CC1", "note": "[BAY 41-2272, 5-cyclopropyl-2-[1-(2-fluoro-benzyl)-1H-pyrazolo[3,4-b]pyridin-3-yl]-pyrimidin-4-ylamine]", "values": [
      {"measurement": "sGC activity of sGC with fully oxidized heme on addition of sGC stimulator", "value": "still activatable by potentiation"}
    ]}
  ]
}
